Calls of active or inactive are those of the source. The rule behind the calls is not given here.
Experiments:
[1] = molecular target: T1, NAD-dependent protein deacylase sirtuin-6 (Homo sapiens, UniProt Q8N6T7); experiment: Inhibition of human SIRT6 deacetylase activity using Arg-His-Lys-Lys(AC)-AMC as a substrate by fluorescence assay
[2] = molecular target: T1, NAD-dependent protein deacylase sirtuin-6; experiment: Inhibition of human recombinant SIRT6 deacetylase activity using Arg-His-Lys-Lys(AC)-AMC as a substrate by […] assay
CAPAN-1 [3] = experiment: Induction of DNA damage in human BRCA2-deficient Capan1 cells assessed as increase in gammaH2AX levels at 8 uM after 24 hrs by confocal microscopy; assay type: functional, cell-based
CAPAN-1 [4] = experiment: Induction of DNA damage in human BRCA2-deficient Capan1 cells assessed as increase in gammaH2AX levels at 8 uM after 24 hrs by flow cytometry analysis; assay type: functional, cell-based
[5] = molecular target: T2, NAD-dependent protein deacetylase sirtuin-2 (Homo sapiens, UniProt Q8IXJ6); experiment: Inhibition of human SIRT2 deacetylase activity using Arg-His-Lys-Lys(AC)-AMC as a substrate by fluorescence assay
T2 sequence (Q8IXJ6 whole entry): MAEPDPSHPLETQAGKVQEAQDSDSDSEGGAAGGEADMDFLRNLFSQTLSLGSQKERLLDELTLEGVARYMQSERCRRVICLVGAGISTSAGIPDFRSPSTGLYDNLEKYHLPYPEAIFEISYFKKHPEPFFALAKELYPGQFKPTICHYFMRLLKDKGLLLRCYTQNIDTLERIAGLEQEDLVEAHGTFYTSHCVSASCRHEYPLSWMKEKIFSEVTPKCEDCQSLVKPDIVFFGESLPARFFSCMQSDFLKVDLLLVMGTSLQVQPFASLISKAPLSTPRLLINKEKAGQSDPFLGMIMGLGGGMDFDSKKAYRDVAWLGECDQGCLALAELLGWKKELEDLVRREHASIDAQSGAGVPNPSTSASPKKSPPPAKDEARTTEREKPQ

[6] = molecular target: T1, NAD-dependent protein deacylase sirtuin-6; experiment: Inhibition of SIRT6 in human BxPC-3 cells assessed as increase in H3K9 acetylation by immunoblotting assay relative to control; assay type: cell-based
[7] = molecular target: T1, NAD-dependent protein deacylase sirtuin-6; experiment: Inhibition of SIRT6 in human BxPC3 cells assessed as reduction in TNF alpha production by ELISA; assay type: cell-based; conditions: BXPC-3, concentration not given here
[8] = Cytotoxicity against human BxPC3 cells assessed as cell viability at 30 uM after 72 hrs by CellTiter96 Aqueous1 assay; assay type: cell-based, BXPC-3; conditions: for Activity: bxpc-3, 72 h, 30 µM
Homo sapiens [9] = species on record: Homo sapiens; experiment: Selectivity ratio of IC50 for human SIRT2 to IC50 for human SIRT6
[10] = molecular target: Protein Sirt6 (Rattus norvegicus) (UniProt A6K863); experiment: Inhibition of SIRT6 in rat L6 cells assessed as increase in 2-NBDG uptake at 100 uM after 18 hrs by fluorescence plate reader relative to control; assay type: cell-based
Homo sapiens [11] = species on record: Homo sapiens; experiment: Selectivity ratio of IC50 for human SIRT1 to IC50 for human SIRT6
[12] = molecular target: T1, NAD-dependent protein deacylase sirtuin-6; experiment: Inhibition of SIRT6 in human PBMC assessed as inhibition of MLR-induced TNF alpha production at 100 uM after 3 days by ELISA
[13] = molecular target: T1, NAD-dependent protein deacylase sirtuin-6; experiment: Inhibition of SIRT6 in human BxPC-3 cells assessed as increase in radiolabelled glucose uptake at 100 uM after 18 hrs by fluorescence plate reader relative to control; assay type: cell-based
[14] = molecular target: T1, NAD-dependent protein deacylase sirtuin-6; experiment: Inhibition of SIRT6 in human PBMC assessed as inhibition of PHA-induced TNF alpha production at 100 uM after 3 days by ELISA
[15] = molecular target: T1, NAD-dependent protein deacylase sirtuin-6; experiment: Inhibition of human SIRT6 in […] Capan1 cells assessed as potentiation of NU1025-induced cytotoxicity by measuring cell viability at 100 uM after 7 days by CellTiter96 Aqueous1 assay; assay type: cell-based; conditions: CAPAN-1
[16] = molecular target: T1, NAD-dependent protein deacylase sirtuin-6; experiment: Inhibition of SIRT6 in human BxPC3 cells assessed as potentiation of gemcitabine-induced cytotoxicity by measuring cell viability at 30 uM by CellTiter96 Aqueous1 assay; assay type: cell-based; conditions: BXPC-3
[17] = Cytotoxicity against human HEK293 cells assessed as cell viability using propidium iodide by flow cytometry; assay type: cell-based; conditions: read-out: Activity
[18] = molecular target: T3, NAD-dependent protein deacetylase sirtuin-1 (Homo sapiens, UniProt Q96EB6); experiment: Inhibition of human SIRT1 deacetylase activity using Arg-His-Lys-Lys(AC)-AMC as a substrate by fluorescence assay
T3 sequence (Q96EB6 whole entry): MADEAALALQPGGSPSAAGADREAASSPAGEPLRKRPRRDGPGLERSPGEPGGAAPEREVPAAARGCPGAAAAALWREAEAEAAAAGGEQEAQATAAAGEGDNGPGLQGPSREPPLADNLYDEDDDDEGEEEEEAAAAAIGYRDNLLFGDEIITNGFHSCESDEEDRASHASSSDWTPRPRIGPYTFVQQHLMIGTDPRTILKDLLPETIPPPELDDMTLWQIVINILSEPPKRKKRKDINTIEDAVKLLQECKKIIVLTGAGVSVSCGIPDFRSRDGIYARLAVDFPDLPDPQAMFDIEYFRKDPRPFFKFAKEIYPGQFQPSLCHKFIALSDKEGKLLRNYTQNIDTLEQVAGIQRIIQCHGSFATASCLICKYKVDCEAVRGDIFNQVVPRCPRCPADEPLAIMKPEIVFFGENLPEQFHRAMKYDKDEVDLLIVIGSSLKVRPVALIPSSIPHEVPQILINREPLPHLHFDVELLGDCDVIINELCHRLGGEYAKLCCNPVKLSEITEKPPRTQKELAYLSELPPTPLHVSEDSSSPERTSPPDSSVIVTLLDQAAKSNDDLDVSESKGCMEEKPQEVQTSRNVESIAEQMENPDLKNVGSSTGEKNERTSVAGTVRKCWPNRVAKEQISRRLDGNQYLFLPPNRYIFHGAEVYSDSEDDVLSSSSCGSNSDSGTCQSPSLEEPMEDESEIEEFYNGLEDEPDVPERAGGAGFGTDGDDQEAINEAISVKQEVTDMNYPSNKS

[19] = molecular target: Protein Sirt6 (Rattus norvegicus) (UniProt A6K863); experiment: Inhibition of SIRT6 in rat L6 cells assessed as increase in radiolabelled glucose uptake at 100 uM after 18 hrs by fluorescence plate reader relative to control; assay type: cell-based
[20] = molecular target: T1, NAD-dependent protein deacylase sirtuin-6; experiment: Competitive inhibition of human recombinant SIRT6 deacetylase activity using NAD+ as a substrate at 50 uM by double-reciprocal plot analysis
[21] = molecular target: T1, NAD-dependent protein deacylase sirtuin-6; experiment: Competitive inhibition of human recombinant SIRT6 deacetylase activity using Arg-His-Lys-Lys(AC)-AMC as a substrate at 50 uM by double-reciprocal plot analysis
[22] = molecular target: T1, NAD-dependent protein deacylase sirtuin-6; experiment: Inhibition of SIRT6 in human PBMC assessed as inhibition of MLR-induced TNF alpha production at 200 uM after 3 days by ELISA
[23] = molecular target: T1, NAD-dependent protein deacylase sirtuin-6; experiment: Inhibition of SIRT6 in human PBMC assessed as inhibition of PHA-induced TNF alpha production at 200 uM after 3 days by ELISA
[24] = molecular target: T1, NAD-dependent protein deacylase sirtuin-6; experiment: Inhibition of human SIRT6 in BRCA2-deficient Capan1 cells assessed as potentiation of olaparib-induced DNA damage by measuring cell viability at 100 uM after 7 days by CellTiter96 Aqueous1 assay; assay type: cell-based; conditions: CAPAN-1
[25] = molecular target: T1, NAD-dependent protein deacylase sirtuin-6; experiment: Inhibition of human SIRT6 in BRCA2-deficient Capan1 cells assessed as potentiation of olaparib-induced DNA damage by measuring gammaH2AX levels at 100 uM after 24 hrs by flow cytometry analysis; assay type: cell-based; conditions: CAPAN-1
CAPAN-1 [26] = experiment: Induction of DNA damage in human BRCA2-deficient Capan1 cells assessed as increase in gammaH2AX levels at 100 uM after 24 hrs by confocal microscopy; assay type: functional, cell-based
[27] = molecular target: T1, NAD-dependent protein deacylase sirtuin-6; experiment: Inhibition of human SIRT6 in BRCA2-deficient Capan1 cells assessed as potentiation of olaparib-induced DNA damage by measuring gammaH2AX levels at 100 uM after 24 hrs by confocal microscopy; assay type: cell-based; conditions: CAPAN-1
CAPAN-1 [28] = experiment: Induction of DNA damage in human BRCA2-deficient Capan1 cells assessed as increase in gammaH2AX levels at 100 uM after 24 hrs by flow cytometry analysis; assay type: functional, cell-based

Chain of Protein Sirt6 (Rattus norvegicus) (A6K863 as listed by the source): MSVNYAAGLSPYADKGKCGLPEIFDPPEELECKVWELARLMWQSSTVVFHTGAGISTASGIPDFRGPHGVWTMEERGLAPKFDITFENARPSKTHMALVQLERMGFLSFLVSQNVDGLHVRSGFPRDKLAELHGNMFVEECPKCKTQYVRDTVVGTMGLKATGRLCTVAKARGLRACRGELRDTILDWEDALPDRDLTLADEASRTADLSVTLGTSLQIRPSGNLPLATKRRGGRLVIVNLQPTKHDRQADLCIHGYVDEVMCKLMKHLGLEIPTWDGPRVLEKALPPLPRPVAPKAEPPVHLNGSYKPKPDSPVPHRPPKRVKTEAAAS
T1 sequence (Q8N6T7 whole entry): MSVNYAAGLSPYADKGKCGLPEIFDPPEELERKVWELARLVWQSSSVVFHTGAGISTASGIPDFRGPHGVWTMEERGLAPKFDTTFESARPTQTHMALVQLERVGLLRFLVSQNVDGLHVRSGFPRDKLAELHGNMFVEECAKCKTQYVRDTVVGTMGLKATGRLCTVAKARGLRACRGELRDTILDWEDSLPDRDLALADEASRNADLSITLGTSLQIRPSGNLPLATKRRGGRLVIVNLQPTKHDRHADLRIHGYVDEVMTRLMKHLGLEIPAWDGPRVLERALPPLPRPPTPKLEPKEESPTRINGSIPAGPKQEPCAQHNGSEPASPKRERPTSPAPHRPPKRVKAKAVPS

## O=c1[nH]c(=O)c2cc(S(=O)(=O)Nc3ccccc3-c3ccccc3)ccc2[nH]1
[1]
  IC50: 137 µM
[2]
  IC50: 137 µM

## O=C(c1cc(Cc2n[nH]c(=O)c3ccccc23)ccc1F)N1CCN(C(=O)C2CC2)CC1
CAPAN-1 [3]
  Activity: Active
CAPAN-1 [4]
  Activity: Active

## CC(=O)Nc1ccc(S(=O)(=O)Nc2ccc(Oc3cccnc3)cc2)cc1
[1]
  IC50: 297 µM
[2]
  IC50: 242 µM

## Cn1ccc2cc(NS(=O)(=O)c3ccc4[nH]c(=O)[nH]c(=O)c4c3)ccc21
[2]
  IC50: 82 µM

## Cn1c(=O)sc2cc(S(=O)(=O)Nc3ccc(Oc4cccnc4)cc3)ccc21
[1]
  IC50: 77 µM
[2]
  IC50: 102 µM

## O=c1[nH]c(=O)c2cc(S(=O)(=O)Nc3ccc(Cn4ccnc4)cc3)ccc2[nH]1
[5]
  IC50: 159 µM
[6]
  fold increase in H3K9 acetylation: 1.5 fold
[7]
  inhibition: 25%
[8]
  Activity: Non-toxic
[1]
  IC50: 60 µM
Homo sapiens [9]
  Ratio IC50: 2.65
[10]
  fold increase in 2-NBDG uptake: 0.7 fold
Homo sapiens [11]
  Ratio IC50: 3.97
[12]
  inhibition: 21%
[13]
  fold increase in glucose uptake: 0.6 fold
[14]
  inhibition: 31%
[15]
  Activity: Active
[16]
  Activity: Active
[17]
  viability: > 80%
[18]
  IC50: 238 µM
[19]
  fold increase in glucose uptake: 0.8 fold

## O=c1[nH]c(=O)c2cc(S(=O)(=O)NC3CCN(Cc4ccccc4)C3)ccc2[nH]1 (centres undefined)
[2]
  IC50: 517 µM

## O=C1CCc2cc(S(=O)(=O)Nc3ccc(Oc4cccnc4)cc3)ccc2N1
[1]
  IC50: 270 µM
[2]
  IC50: 275 µM

## Cn1c(=O)c2cc(S(=O)(=O)Nc3ccc(Cc4ccncc4)cc3)ccc2n(C)c1=O
[5]
  IC50: 242 µM
[6]
  fold increase in H3K9 acetylation: 1.6 fold
[8]; BxPC3 cells, read-out: Activity
  viability at 72 h, 30 µM: 75%
[1]
  IC50: 49 µM
Homo sapiens [9]
  Ratio IC50: 4.94
[20]
  inhibition: Active
[10]
  fold increase in 2-NBDG uptake: 3.1 fold
[2]
  IC50: 38 µM
Homo sapiens [11]
  Ratio IC50: 133
[13]
  fold increase in glucose uptake: 1.9 fold
[21]
  inhibition: Active
[18]
  IC50: 6520 µM
[19]
  fold increase in glucose uptake: 4 fold

## O=C1CCCN1c1ccc(S(=O)(=O)Nc2ccc(Oc3cccnc3)cc2)cc1
[1]
  IC50: 441 µM

## O=S(=O)(Nc1ccc(Oc2cccnc2)cc1)c1ccccc1
[2]
  IC50: 300 µM

## O=c1[nH]c(=O)c2cc(S(=O)(=O)Nc3ccc(Oc4cccnc4)cc3)ccc2[nH]1
[6]
  fold increase in H3K9 acetylation: 2.2 fold
[7]
  inhibition: 73%
[22]
  inhibition: 47%
Homo sapiens [9]
  Ratio IC50: 1.07
[23]
  inhibition: 52%
[20]
  inhibition: Active
[10]
  fold increase in 2-NBDG uptake: 2.4 fold
[2]
  IC50: 136 µM
Homo sapiens [11]
  Ratio IC50: 2.96
[24]
  Activity: Active
[25]
  Activity: Active
[13]
  fold increase in glucose uptake: 1.3 fold
CAPAN-1 [26]
  Activity: Active
[15]
  Activity: Active
[27]
  Activity: Active
CAPAN-1 [28]
  Activity: Active
[17]
  viability: > 50%
[21]
  inhibition: Active
[19]
  fold increase in glucose uptake: 2 fold

## O=c1[nH]c(=O)c2cc(S(=O)(=O)NCc3cccc(Cn4ccnc4)c3)ccc2[nH]1
[2]
  IC50: 2870 µM

## O=c1[nH]c(=O)c2cc(S(=O)(=O)Nc3ccc(Oc4ccccc4)cc3)ccc2[nH]1
[2]
  IC50: 127 µM

## O=c1[nH]c(=O)c2cc(S(=O)(=O)Nc3cccc(CCc4ccncc4)c3)ccc2[nH]1
[5]
  IC50: 85 µM
[6]
  fold increase in H3K9 acetylation: 1.4 fold
[7]
  inhibition: 72%
[8]
  Activity: Non-toxic
[1]
  IC50: 37 µM
Homo sapiens [9]
  Ratio IC50: 2.3
[20]
  inhibition: Active
[10]
  fold increase in 2-NBDG uptake: 1 fold
[2]
  IC50: 55 µM
Homo sapiens [11]
  Ratio IC50: 11.5
[12]
  inhibition: 27%
[24]
  Activity: Active
[13]
  fold increase in glucose uptake: 1.2 fold
[14]
  inhibition: 44%
[15]
  Activity: Active
[16]
  Activity: Active
[17]
  viability: > 80%
[21]
  inhibition: Active
[18]
  IC50: 424 µM
[19]
  fold increase in glucose uptake: 2.8 fold
